Data as given in ChEMBL document CHEMBL6109156, “Discovery of Dual PD-L1/HDAC3 Inhibitors for Tumor Immunotherapy” (J Med Chem, 2025).
Activity calls are given as the source filed them. No cut-off for these calls is given here.

Experiments:
[1] = biological target: T1, Programmed cell death protein 1/Programmed cell death 1 ligand 1 (Homo sapiens, UniProt Q9NZQ7); experiment: Inhibition of PD-1/PD-L1 (unknown origin) interaction assessed as inhibition rate at 1 uM by HTRF assay relative to control; type: protein-complex assay
[2] = system: B16-F10; experiment: Induction of apoptosis in mouse B16-F10 cells assessed as viable cells at 4 uM incubated for 48 hrs by Annexin V-FITC/PI staining based flow cytometry analysis (reference value: 92.3%); type: functional; details: read-out: Activity
[3] = system: MDA-MB-231; experiment: Antiproliferative activity against human MDA-MB-231 cells assessed as cell growth inhibition incubated for 48 hrs by MTT assay; type: functional, cell-based; details: MDA-MB-231, 48 h
[4] = system: B16-F10; experiment: Induction of apoptosis in mouse B16-F10 cells assessed as early apoptotic cells at 4 uM incubated for 48 hrs by Annexin V-FITC/PI staining based flow cytometry analysis (reference value: 0.45 %); type: functional
[5] = system: B16-F10; experiment: Induction of cell cycle arrest in mouse B16-F10 cells assessed as accumulation of cells at G2/M phase at 4 uM incubated for 48 hrs by PI staining based flow cytometry analysis (reference value: 5.87%); type: functional
[6] = system: B16-F10; experiment: Induction of apoptosis in mouse B16-F10 cells assessed as late apoptotic cells at 4 uM incubated for 48 hrs by Annexin V-FITC/PI staining based flow cytometry analysis (reference value: 5.02 %); type: functional
[7] = system: B16-F10; experiment: Induction of cell cycle arrest in mouse B16-F10 cells assessed as accumulation of cells at S phase at 4 uM incubated for 48 hrs by PI staining based flow cytometry analysis (reference value: 24.04%); type: functional
[8] = system: HepG2; experiment: Antiproliferative activity against human HepG2 cells assessed as cell growth inhibition incubated for 48 hrs by MTT assay; type: functional, cell-based; details: HepG2, 48 h
[9] = system: B16-F10; experiment: Antitumor activity against mouse B16-F10 cells implanted in C57BL/6J mouse assessed as tumor growth inhibition at 20 mg/kg, ip administered once daily for 9 days in presence of NP19; type: functional; details: B16-F10, 216 h, time 9 day, read-out: TGI
[10] = system: B16-F10; experiment: Immunomodulatory activity in mouse B16-F10 cells implanted in C57BL/6J mouse assessed as percentage of CD3 positive CD4 positive cells in tumor at 10 mg/kg, ip administered once daily for 9 days in presence of NP19 by flow cytometric analysis (reference value: 0.20 %); type: functional; details: time 9 day
[11] = system: B16-F10; experiment: Immunomodulatory activity in mouse B16-F10 cells implanted in C57BL/6J mouse assessed as percentage of CD3 positive CD8 positive cells in tumor at 10 mg/kg, ip administered once daily for 9 days in presence of NP19 by flow cytometric analysis (reference value: 0.44 %); type: functional; details: time 9 day
[12] = system: HCT-116; experiment: Antiproliferative activity against human HCT-116 cells assessed as cell growth inhibition incubated for 48 hrs by MTT assay; type: functional, cell-based; details: HCT-116, 48 h
[13] = system: B16-F10; experiment: Induction of apoptosis in mouse B16-F10 cells assessed as necrotic cells at 4 uM incubated for 48 hrs by Annexin V-FITC/PI staining based flow cytometry analysis (reference value: 2.24%); type: functional
[14] = system: A-375; experiment: Antiproliferative activity against human A-375 cells assessed as cell growth inhibition incubated for 48 hrs by MTT assay; type: functional, cell-based; details: A-375, 48 h
[15] = system: B16-F10; experiment: Induction of cell cycle arrest in mouse B16-F10 cells assessed as accumulation of cells at G0/G1 phase at 4 uM incubated for 48 hrs by PI staining based flow cytometry analysis (reference value: 70.09%); type: functional
[16] = system: B16-F10; experiment: Antiproliferative activity against mouse B16-F10 cells assessed as cell growth inhibition incubated for 48 hrs by MTT assay; type: functional, cell-based; details: B16-F10, 48 h
[17] = system: B16-F10; experiment: Immunomodulatory activity in mouse B16-F10 cells implanted in C57BL/6J mouse assessed as percentage of CD3 positive CD4 positive cells in tumor at 10 mg/kg, ip administered once daily for 9 days in presence of MS-275 by flow cytometric analysis (reference value: 0.20 %); type: functional; details: time 9 day
[18] = biological target: T1, Programmed cell death protein 1/Programmed cell death 1 ligand 1; experiment: Inhibition of PD-1/PD-L1 (unknown origin) interaction assessed as inhibition rate by HTRF assay; type: protein-complex assay
[19] = system: 4T1; experiment: Antiproliferative activity against mouse 4T1 cells assessed as cell growth inhibition incubated for 48 hrs by MTT assay; type: functional, cell-based; details: 4T1, 48 h
[20] = Toxicity in C57BL/6J mouse implanted with mouse B16-F10 cells assessed as animal death at 20 mg/kg, ip administered once daily for 5 days in presence of MS-275; type: organism-based; details: in vivo, 120 h, time 5 day
[21] = Toxicity in C57BL/6J mouse implanted with mouse B16-F10 cells assessed as body weight loss at 20 mg/kg, ip administered once daily for 9 days; type: organism-based; details: in vivo, 216 h, time 9 day
[22] = biological target: Histone deacetylase 3 (Homo sapiens, UniProt O15379); experiment: Inhibition of human recombinant HDAC3 using Ac-Leu-Gly-Lys (Ac)-AMC as substrate preincubated for 10 mins followed by substrate addition and measured after 45 mins by TECAN microtiter plate reader analysis
[23] = system: B16-F10; experiment: Immunomodulatory activity in mouse B16-F10 cells implanted in C57BL/6J mouse assessed as percentage of CD3 positive CD4 positive cells in tumor at 20 mg/kg, ip administered once daily for 9 days by flow cytometric analysis (reference value: 0.20 %); type: functional; details: time 9 day
[24] = system: B16-F10; experiment: Immunomodulatory activity in mouse B16-F10 cells implanted in C57BL/6J mouse assessed as percentage of CD3 positive CD8 positive cells in tumor at 10 mg/kg, ip administered once daily for 9 days in presence of MS-275 by flow cytometric analysis (reference value: 0.44 %); type: functional; details: time 9 day
[25] = system: B16-F10; experiment: Antitumor activity against mouse B16-F10 cells implanted in C57BL/6J mouse assessed as tumor growth inhibition at 20 mg/kg, ip administered once daily for 9 days; type: functional; details: B16-F10, 216 h, time 9 day, read-out: TGI
[26] = system: B16-F10; experiment: Immunomodulatory activity in mouse B16-F10 cells implanted in C57BL/6J mouse assessed as percentage of CD3 positive CD8 positive cells in tumor at 20 mg/kg, ip administered once daily for 9 days by flow cytometric analysis (reference value: 0.44 %); type: functional; details: time 9 day
[27] = biological target: T2, Histone deacetylase 3 (Mus musculus) (UniProt O88895); experiment: Inhibition of HDAC3 in mouse B16-F10 cells assessed as upregulation of Ac-H3 level at 3 uM incubated for 24 hrs by Western blotting analysis; type: cell-based
T2 sequence (whole entry): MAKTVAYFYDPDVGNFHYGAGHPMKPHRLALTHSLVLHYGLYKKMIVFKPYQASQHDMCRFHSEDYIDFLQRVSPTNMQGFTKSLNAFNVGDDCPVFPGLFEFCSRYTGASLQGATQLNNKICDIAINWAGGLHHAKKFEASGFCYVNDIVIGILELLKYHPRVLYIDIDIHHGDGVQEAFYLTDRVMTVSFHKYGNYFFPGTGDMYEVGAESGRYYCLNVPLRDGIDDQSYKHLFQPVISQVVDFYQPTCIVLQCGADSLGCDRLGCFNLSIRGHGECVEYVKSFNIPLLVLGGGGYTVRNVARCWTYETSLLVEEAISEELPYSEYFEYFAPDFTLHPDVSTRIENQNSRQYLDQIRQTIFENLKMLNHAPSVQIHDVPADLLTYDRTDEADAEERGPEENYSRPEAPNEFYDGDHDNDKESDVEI

[28] = system: B16-F10; experiment: Antitumor activity against mouse B16-F10 cells implanted in C57BL/6J mouse assessed as tumor growth inhibition at 20 mg/kg, ip administered once daily for 9 days in presence of MS-275; type: functional; details: B16-F10, 216 h, time 9 day, read-out: TGI
[29] = Toxicity in C57BL/6J mouse implanted with mouse B16-F10 cells assessed as body weight loss at 20 mg/kg, ip administered once daily for 5 days in presence of MS-275; type: organism-based; details: in vivo, 120 h, time 5 day

T1 sequence (Q15116 whole entry): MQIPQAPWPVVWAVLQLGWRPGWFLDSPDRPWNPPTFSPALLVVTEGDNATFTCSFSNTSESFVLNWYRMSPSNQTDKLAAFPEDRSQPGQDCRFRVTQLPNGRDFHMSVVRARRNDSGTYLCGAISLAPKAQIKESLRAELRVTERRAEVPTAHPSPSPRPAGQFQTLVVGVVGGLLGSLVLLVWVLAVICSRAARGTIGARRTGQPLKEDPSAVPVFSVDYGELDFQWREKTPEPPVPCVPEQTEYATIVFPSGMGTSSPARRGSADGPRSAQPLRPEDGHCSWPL
T1 sequence (Q9NZQ7 whole entry): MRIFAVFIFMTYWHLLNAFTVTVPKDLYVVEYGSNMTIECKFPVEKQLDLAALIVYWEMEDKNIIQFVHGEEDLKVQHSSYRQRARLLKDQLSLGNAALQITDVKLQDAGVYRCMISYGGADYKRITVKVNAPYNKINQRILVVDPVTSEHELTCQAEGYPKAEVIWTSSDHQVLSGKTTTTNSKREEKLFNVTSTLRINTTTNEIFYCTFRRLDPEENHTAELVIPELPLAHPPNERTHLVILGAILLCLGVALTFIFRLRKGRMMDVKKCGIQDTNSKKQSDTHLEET
Chain of Histone deacetylase 3 (O15379 whole entry): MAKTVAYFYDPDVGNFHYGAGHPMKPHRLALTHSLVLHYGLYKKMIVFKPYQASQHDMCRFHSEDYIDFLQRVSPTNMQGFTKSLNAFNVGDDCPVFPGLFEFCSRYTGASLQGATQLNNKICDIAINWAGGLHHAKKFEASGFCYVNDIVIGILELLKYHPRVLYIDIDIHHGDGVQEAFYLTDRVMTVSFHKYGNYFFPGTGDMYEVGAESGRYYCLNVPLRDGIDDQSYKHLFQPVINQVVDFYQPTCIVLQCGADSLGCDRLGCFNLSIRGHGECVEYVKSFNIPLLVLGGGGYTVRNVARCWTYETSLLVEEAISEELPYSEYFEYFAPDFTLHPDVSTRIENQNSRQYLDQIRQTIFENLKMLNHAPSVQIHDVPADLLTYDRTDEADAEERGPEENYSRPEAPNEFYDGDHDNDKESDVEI

Compound | IC50 [1] [µM] | viability at 4 µM [2] [%] | IC50 [3] [µM] | Activity [4] [%] | Activity [5] [%] | Activity [6] [%] | Activity [7] [%] | IC50 [8] [µM] | IC50 [12] [µM] | Activity [13] [%] | IC50 [14] [µM] | Activity [15] [%] | further results
Nc1ccccc1NC(=O)c1ccc(CNC(=O)OCc2cccnc2)cc1 [ENTINOSTAT] | > 10 | 74.5 | 30.3 | 7.43 | 6.59 | 12.8 | 5.79 | 6.32 | 3.54 | 5.25 | 4.91 | 87.62 | inhibition in vivo at 20 mg/kg [9]: 37%; Activity [10]: 1.89%; Activity [11]: 3.34%
Cc1c(COc2cc(OCc3cccc(C#N)c3)c(CNC(C)(C)C(=O)O)cc2Cl)cccc1-c1ccccc1 | 0.0683 | 93.6 | > 50 | 0.47 | 5.05 | 3.95 | 24.28 | > 50 | > 50 | 1.96 | > 50 | 70.67 | IC50 [16]: > 50 µM; Activity [17]: 1.89%; IC50 [18]: 0.0683 µM; IC50 [19]: > 50 µM; Activity [20]: Toxic; Activity [21]: Non-toxic; IC50 [22]: > 10 µM; Activity [23]: 0.78%; Activity [24]: 3.34%; inhibition in vivo at 20 mg/kg [25]: 30.8%; Activity [26]: 2.68%; inhibition [27]: inactive; inhibition in vivo at 20 mg/kg [28]: 37%; Activity [29]: Toxic
